In one experiment the target is T1, human kinase Mps-1 (Homo sapiens, UniProt P33981).
T1 construct: N-terminally GST-tagged human full length recombinant Mps-1 kinase; purchased Invitrogen, Karslruhe, Germany PV4071
T1 sequence (P33981 1-857): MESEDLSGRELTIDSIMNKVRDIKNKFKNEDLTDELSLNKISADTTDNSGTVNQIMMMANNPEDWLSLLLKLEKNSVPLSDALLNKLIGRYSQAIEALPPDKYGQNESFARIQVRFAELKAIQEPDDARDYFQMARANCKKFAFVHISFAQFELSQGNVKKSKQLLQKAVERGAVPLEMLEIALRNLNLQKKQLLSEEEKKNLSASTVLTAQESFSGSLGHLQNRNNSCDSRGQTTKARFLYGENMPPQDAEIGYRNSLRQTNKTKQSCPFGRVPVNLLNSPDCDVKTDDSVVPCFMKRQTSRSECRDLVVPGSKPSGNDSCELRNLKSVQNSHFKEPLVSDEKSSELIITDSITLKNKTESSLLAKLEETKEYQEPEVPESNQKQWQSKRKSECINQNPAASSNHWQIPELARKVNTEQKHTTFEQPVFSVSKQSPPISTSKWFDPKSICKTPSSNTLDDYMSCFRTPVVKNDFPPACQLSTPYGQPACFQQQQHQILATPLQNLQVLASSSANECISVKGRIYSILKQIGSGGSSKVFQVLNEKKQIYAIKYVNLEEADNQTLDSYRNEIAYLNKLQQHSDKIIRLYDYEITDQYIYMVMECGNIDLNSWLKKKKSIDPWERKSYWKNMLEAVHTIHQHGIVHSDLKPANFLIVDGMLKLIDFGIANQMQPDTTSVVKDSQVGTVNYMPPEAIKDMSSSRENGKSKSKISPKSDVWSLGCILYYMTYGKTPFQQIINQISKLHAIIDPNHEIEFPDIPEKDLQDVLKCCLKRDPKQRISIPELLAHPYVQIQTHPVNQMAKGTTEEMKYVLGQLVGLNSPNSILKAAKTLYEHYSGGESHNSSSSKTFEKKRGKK
The experiment can be described thus: Mps-1 kinase assay (TR-FRET, 10 μM ATP). Format: biochemical. The settings on record: N-terminally GST-tagged human full length recombinant Mps-1, read-out: Mps-1 Inhibition, IC50 (Assay with 10 μM ATP). On the procedure: The human kinase Mps-1 phosphorylates a biotinylated substrate peptide. Detection of the phosphorylated product is achieved by time-resolved fluorescence resonance energy transfer (TR-FRET) from Europium-labelled anti-phospho-Serine/Threonine antibody as donor to streptavidin Labelled with cross-linked allophycocyanin (SA-XLent) as acceptor. Compounds are tested for their inhibition of the kinase activity.
N-terminally GST-tagged human full length recombinant Mps-1 kinase (purchased from Invitrogen, Karslruhe, Germany, cat. no PV4071) was used. As substrate for the kinase reaction a biotinylated peptide of the amino-acid sequence PWDPDDADITEILG (C-terminus in amide form, purchased from Biosynthan GmbH, Berlin) was used.
For the assay 50 nl of a 100-fold concentrated solution of the test compound in DMSO was pipetted into a black low volume 384 well microtiter plate (Greiner Bio-One, Frickenhausen, Germany), 2 μl of a solution of Mps-1 in assay buffer [0.1 mM sodium-ortho-vanadate, 10 mM MgCl2, 2 mM DTT, 25 mM Hepes pH 7.7, 0.05% BSA, 0.001% Pluronic F-127] were added and the mixture was incubated for 15 min at 22° C. to allow pre-binding of the test compounds to Mps-1 before the start of the kinase reaction. Then the kinase reaction was started by the addition of 3 μl of a solution of […] (ATP, 16.7 μM=>final conc. in the 5 μl assay volume is 10 μM) and peptide substrate (1.67 μM=>final conc. in the 5 μl assay volume is 1 μM) in assay buffer and the resulting mixture was incubated for a reaction time of 60 min at 22° C. The concentration of Mps-1 in the assay was adjusted to the activity of the enzyme lot and was chosen appropriate to have the assay in the linear range, typical enzyme concentrations were in the range of about 1 nM (final conc. in the 5 μl assay volume). The reaction was stopped by the addition of 3 μl of a solution of HTRF detection reagents (100 mM Hepes pH 7.4, 0.1% BSA, 40 mM EDTA, 140 nM Streptavidin-XLent [#61GSTXLB, Fa. Cis Biointernational, Marcoule, France], 1.5 nM anti-phospho(Ser/Thr)-Europium-antibody [#AD0180, PerkinElmer LAS, Rodgau-Jügesheim, Germany].
The resulting mixture was incubated 1 h at 22° C. to allow the binding of the phosphorylated peptide to the anti-phospho(Ser/Thr)-Europium-antibody. Subsequently the amount of phosphorylated substrate was evaluated by measurement of the resonance energy transfer from the Europium-labelled anti-phospho(Ser/Thr) antibody to the Streptavidin-XLent. Therefore, the fluorescence emissions at 620 nm and 665 nm after excitation at 350 nm was measured in a Viewlux TR-FRET reader (PerkinElmer LAS, Rodgau-Jügesheim, Germany). The “blank-corrected normalized ratio” (a Viewlux specific readout, similar to the traditional ratio of the emissions at 665 nm and at 622 nm, in which blank and Eu-donor crosstalk are subtracted from the 665 nm signal before the ratio is calculated) was taken as the measure for the amount of phosphorylated substrate. The data were normalised (enzyme reaction without inhibitor=0% inhibition, all other assay components but no enzyme=100% inhibition).
(In TR-FRET formats the signal depends on donor and acceptor labels being close together.)

Experiment [1] relates to HeLa human cervical tumor cells. The experiment can be described thus: HeLa cell proliferation assay (crystal violet staining). Type of experiment: cell-based. The settings on record: 96 h, 4 days incubation, read-out: Inhibition of cell proliferation, cell Line: HeLa IC50. As for the experimental part: Cultivated tumor cells (MCF7, hormone dependent human mammary carcinoma cells, ATCC HTB22; NCI-H460, human non-small cell lung carcinoma cells, ATCC HTB-177; DU 145, hormone-independent human prostate carcinoma cells, ATCC HTB-81; HeLa-MaTu, human cervical carcinoma cells, EPO-GmbH, Berlin; HeLa-MaTu-ADR, multidrug-resistant human cervical carcinoma cells, EPO-GmbH, Berlin; HeLa human cervical tumor cells, ATCC CCL-2; B16F10 mouse melanoma cells, ATCC CRL-6475) were plated at a density of 5000 cells/well (MCF7, DU145, HeLa-MaTu-ADR), 3000 cells/well (NCI-H460, HeLa-MaTu, HeLa), or 1000 cells/well (B16F10) in a 96-well multititer plate in 200 μl of their respective growth medium supplemented 10% fetal calf serum. After 24 hours, the cells of one plate (zero-point plate) were stained with crystal violet (see below), while the medium of the other plates was replaced by fresh culture medium (200 μl), to which the test substances were added in various concentrations (0 μM, as well as in the range of 0.01-30 μM; the final concentration of the solvent dimethyl sulfoxide was 0.5%). The cells were incubated for 4 days in the presence of test substances. Cell proliferation was determined by staining the cells with crystal violet: the cells were fixed by adding 20 μl/measuring point of an 11% glutaric aldehyde solution for 15 minutes at room temperature. After three washing cycles of the fixed cells with water, the plates were dried at room temperature. The cells were stained by adding 100 μl/measuring point of a 0.1% crystal violet solution (pH 3.0). After three washing cycles of the stained cells with water, the plates were dried at room temperature. The dye was dissolved by adding 100 μl/measuring point of a 10% acetic acid solution. The extinction was determined by photometry at a wavelength of 595 nm. The change of cell number, in percent, was calculated by normalization of the measured values to the extinction values of the zero-point plate (=0%) and the extinction of the untreated (0 μm) cells (=100%). The IC50 values were determined by means of a 4 parameter fit using the company's own software.
The compounds of the present invention are characterized by the following IC50 values, determined in a HeLa cell proliferation assay (as described above): […]

Turning to `COc1cc(S(C)(=O)=O)ccc1Nc1cn2nc(-c3ccc(NC(=O)[C@H](C)c4ccc(F)cc4)cc3)ccc2n1` [Example 6.1, (2R)-2-(4-fluorophenyl)-N-[4-(2-{[2-methoxy-4-(methylsulfonyl)phenyl]amino}imidazo[1,2-b]pyridazin-6-yl)phenyl]propanamide], the IC50 on human kinase Mps-1 was at most 1 nM; in experiment [1], 501 nM.

As to `COc1cc(C(=O)N2CCC2)ccc1Nc1nc2cc(-c3ccc(NC(=O)[C@H](C)c4ccc(F)cc4)cc3)ccn2n1` [Example 5.6, (2R)—N-[4-(2-{[4-(azetidin-1-ylcarbonyl)-2-methoxyphenyl]amino}[1,2,4]triazolo[1,5-a]pyridin-7-yl)phenyl]-2-(4-fluorophenyl)propanamide], the IC50 is at most 1 nM on human kinase Mps-1 and 57 nM in experiment [1].

For `C[C@@H](C(=O)Nc1ccc(-c2ccn3nc(Nc4ccc(S(C)(=O)=O)cc4OCC(F)(F)F)nc3c2)cc1)c1ccc(F)cc1` [Example 5.5, (2R)-2-(4-fluorophenyl)-N-[4-(2-{[4-(methylsulfonyl)-2-(2,2,2-trifluoroethoxy)phenyl]amino}[1,2,4]triazolo[1,5-a]pyridin-7-yl)phenyl]propanamide], the IC50 is at most 1 nM at human kinase Mps-1 and 82 nM in experiment [1].

Take `C[C@@H](C(=O)Nc1ccc(-c2ccn3nc(Nc4ccc(C(=O)N5CC(F)C5)cc4OCC(F)(F)F)nc3c2)cc1)c1ccc(F)cc1` [Example 5.3, (2R)—N-{4-[2-({4-[(3-fluoroazetidin-1-yl)carbonyl]-2-(2,2,2-trifluoroethoxy)phenyl}amino)[1,2,4]triazolo[1,5-a]pyridin-7-yl]phenyl}-2-(4-fluorophenyl)propanamide]: the IC50 on human kinase Mps-1 is at most 1 nM; in experiment [1], 13 nM.

Turning to `COc1cc(C(=O)N2CC(F)C2)ccc1Nc1nc2cc(-c3ccc(NC(=O)[C@H](C)c4ccc(F)cc4)cc3)ccn2n1` [Example 5.2, (2R)—N-{4-[2-({4-[(3-fluoroazetidin-1-yl)carbonyl]-2-methoxyphenyl}amino)[1,2,4]triazolo[1,5-a]pyridin-7-yl]phenyl}-2-(4-fluorophenyl)propanamide], the IC50 on human kinase Mps-1 is at most 1 nM; in experiment [1], 24 nM.

On to `COc1cc(S(C)(=O)=O)ccc1Nc1nc2cc(-c3ccc(NC(=O)[C@H](C)c4ccc(F)cc4)cc3)ccn2n1` [Example 5.1, (2R)-2-(4-fluorophenyl)-N-[4-(2-{[2-methoxy-4-(methylsulfonyl)phenyl]amino}[1,2,4]triazolo[1,5-a]pyridin-7-yl)phenyl]propanamide], for which the IC50 at human kinase Mps-1 was at most 1 nM; in experiment [1] it was 118 nM.

In the case of `COc1cc(S(C)(=O)=O)ccc1Nc1nc2cnc(-c3ccc(NC(=O)Cc4ccc(F)cc4)cc3)cn2n1` [Example 2.8, 2-(4-fluorophenyl)-N-[4-(2-{[2-methoxy-4-(methylsulfonyl)phenyl]amino}[1,2,4]triazolo[1,5-a]pyrazin-6-yl)phenyl]acetamide], the IC50 at human kinase Mps-1 was at most 1 nM.
